Laboratory results: US20180311194A1, “APPLICATION OF TRANILAST IN PREPARATION OF DRUG TREATING SCLEREDEMA DIABETICORUM” (THE FIRST AFFILIATED HOSPITAL OF NANJING MEDICAL UNIVERSITY, priority 2016, published 2018)

Tests used:
[1] = tested on: patients with scleredema diabeticorum; experiment: Clinical oral treatment of patients with scleredema diabeticorum, skin thickness by B-ultrasound; format: in vivo, human; settings: for skin thickness measured by B-ultrasound: back skin
From the text: FIG. 1 is a B-ultrasonography of a patient before medication (a and b are different parts of the affected skin).
1. Mode of administration: oral, tranilast 0.1 g, 3 times a day, every 3 months for a course of treatment, a total of two courses.

experimental asthma = settings: rats; cited from earlier work
type I collagen mRNA = settings: human dermal fibroblasts; cited from earlier work
[2] = tested on: IgE antibody-induced cutaneous anaphylaxis; settings: rats; cited from earlier work
fibroblast = experiment: Secretion and synthesis of mucin by fibroblast; format: cell-based; settings: initially found
[3] = 3 patients, tranilast capsule 0.1, 3 times a day orally, after 3 months
[4] = patients with scleredema diabeticorum, after 3 months of application

blood routine examination, routine urine examination, and biochemical detection ([1]; tranilast capsule 0.1, 3 times a day orally, 3 months): no obvious abnormalities
Structure (SMILES): COc1ccc(/C=C/C(=O)Nc2ccccc2C(=O)O)cc1OC [tranilast]
local skin erythema [1, 3]: subsided significantly
uncomfortable symptom of conscious hardening [1, 3]: significantly relieved
therapeutic effect on scleredema diabeticorum ([1]; clinical results): good therapeutic effect
skin thickness measured by B-ultrasound ([1]; patient Example 1, person, after 3 months of oral administration, before 6.5 mm): 6 mm
skin thickness measured by B-ultrasound ([1]; patient Example 2, person, 0.1 three times a day, after 3 months, before 8 mm): 6 mm
skin thickness measured by B-ultrasound ([1]; patient Example 3, person, 0.1 three times a day, after 3 months, before 8.5 mm): 5.9 mm
thickness of the surrounding skin (B-ultrasonography) ([1]; patient, after 3 months of medication, before medication 3.6 mm): 3.0 mm
thickness of the thickest part of skin on the right side (back of the neck, B-ultrasonography) ([1]; patient, after 3 months of medication, before medication about 7.5 mm): about 6.3 mm
thickness of the thickest part of the skin on the left side (back of the neck, B-ultrasonography) ([1]; patient, after 3 months of medication, before medication about 8.7 mm): about 6.8 mm
reduction of maximum skin thickness (B-ultrasound) ([1]; patient, after 3 months of treatment, before treatment 7.8 to 8.7 mm): 2 mm
adverse reactions [1, 4]: no significant adverse reactions were observed
symptoms in clinical practice [1, 4]: significantly relieved
thickness of the skin detected by B-ultrasound [1, 4]: significantly thinner
skin change in further treated cases ([1]; several further cases): skin thinning
effect on experimental asthma (experimental asthma): significant inhibitory effect
TGF-β-induced upregulation of type I collagen mRNA expression and basal level of type I collagen mRNA (type I collagen mRNA): able to suppress
effect on IgE antibody-induced cutaneous anaphylaxis [2]: significant inhibitory effect
secretion and synthesis of mucin by fibroblast (fibroblast): inhibiting
